# Data from patent US12663426B2, “Method and composition for measurement of nitric oxide” (The University of Chicago, priority 2019, dated 2026).
# Read-outs that look alike come from different tables or passages of the source.
# What was measured:
# [1] = biological target: T1, NOS2 (Mus musculus, UniProt P29477); assay: In cellulo specificity of NOckout to NO in LPS primed J774A.1 cells; format: cell-based; details: J774 cells, LPS; VAS2870 10 μM, ABAH 50 μM
# T1 construct: J774A.1 cells were treated with 1 μg/mL LPS for 12 h prior to the addition of NOckout; endogenous in cells; host or cells: J774A.1 macrophages primed with LPS
# Method: Pharmacological inhibition: Pharmacological inhibition of different enzymes were performed by employing known inhibitors. […] Cells were bathed in inhibitors 1 h prior to the addition of NOckout probes during the specificity experiment performed in J774A.1 cells.
# In cellulo specificity of NOckout to NO: In cellulo specificity of the NOckout probe towards NO^− was validated in J774A.1 cells. […] J774A.1 cells were treated with 1 μg/mL LPS for 12 h prior to the addition of NOckout (500 nM in HBSS) either in the presence or in absence of specific inhibitors. LPS addition was employed to induce the expression of NOS2NOX and MPO. […] After 90 minutes of incubation with the NOckout culture media was removed from the cells and three washes were performed using HBSS to remove extracellular NOckout before proceeding to the fluorescence imaging. […]
# The in-cell specificity of NOckout can be evaluated by measuring the contribution of the reactive species produced by NOX, MPO and NOS2 to the observed fold change in G/R ratio upon LPS stimulation. […] As NOS2 activity is not pan-endosomal, specificity is given by quantifying the percentage of endosomes that show G/R values higher than the mean G/R value in endosomes of unstimulated, NOS2 inhibited cells, as the latter corresponds to basal endosomal NO levels (FIG. 6c).
# [2] = Decomposition / NO release of DEA NONOate; format: physicochemical
# From the text: (§1) Sub-cellular nitric oxide quantification. […] (FIG. 16).
# Additionally, DEA-NONOate concentration follows first order decay and can be described with initial DEA-NONOate concentration (indicated by [NONOate]0).
# Next, in order to measure the relative activities of NOS3 at the plasma membrane and the TGN, a method was developed to quantify sub-cellular NO generated due to NOS3 activity. […] As the effective concentration of NO at any time, [NO]eff, changes with time, NOS3 activity is best quantified by the rate of NO production. Therefore, the decomposition rate constant (k1 sec^−1) of DEA-NONOate was first measured from its UV absorbance at 250 nm, to obtain [NO]eff over time in solution for fixed DEA-NONOate concentrations (FIG. 17a, Methods) (Ramamurthi, A. & Lewis, R. S. Measurement and modeling of nitric oxide release rates for nitric oxide donors. Chem. Res. Toxicol. 10, 408-413 (1997)). […]
# In vitro fluorescence measurements: All fluorescence studies were carried out on a Fluoromax-4 (Horiba Scientific, Japan) spectrophotometer. […] Fluorescence emission spectra were collected in the range of 560-620 nm (slit width=2 nm) for DAR and 655-700 nm (slit width=2 nm) for A647N. […] Fluorescence signal from NOckout. […] was recorded sequentially in the DAR (G) and A647N (R) channels before and after the addition of DEANONOate (30 μM) at timed intervals (30 s). […]
# [3] = 37° C., 100 mM phosphate buffer (pH 7.4); cited from earlier work
# [4] = biological target: T2, murine TLR-9 (Mus musculus, UniProt Q9EQU3); assay: Endosomal NO in primary mouse microglia with NOckout^mCpG; format: cell-based; details: primary microglia, versus NOckout^mCpG, n=100 endosomes
# T2 construct: endogenous in cells; host or cells: primary microglia from C57BL/6 mice
# T2 sequence (Q9EQU3 26-1032): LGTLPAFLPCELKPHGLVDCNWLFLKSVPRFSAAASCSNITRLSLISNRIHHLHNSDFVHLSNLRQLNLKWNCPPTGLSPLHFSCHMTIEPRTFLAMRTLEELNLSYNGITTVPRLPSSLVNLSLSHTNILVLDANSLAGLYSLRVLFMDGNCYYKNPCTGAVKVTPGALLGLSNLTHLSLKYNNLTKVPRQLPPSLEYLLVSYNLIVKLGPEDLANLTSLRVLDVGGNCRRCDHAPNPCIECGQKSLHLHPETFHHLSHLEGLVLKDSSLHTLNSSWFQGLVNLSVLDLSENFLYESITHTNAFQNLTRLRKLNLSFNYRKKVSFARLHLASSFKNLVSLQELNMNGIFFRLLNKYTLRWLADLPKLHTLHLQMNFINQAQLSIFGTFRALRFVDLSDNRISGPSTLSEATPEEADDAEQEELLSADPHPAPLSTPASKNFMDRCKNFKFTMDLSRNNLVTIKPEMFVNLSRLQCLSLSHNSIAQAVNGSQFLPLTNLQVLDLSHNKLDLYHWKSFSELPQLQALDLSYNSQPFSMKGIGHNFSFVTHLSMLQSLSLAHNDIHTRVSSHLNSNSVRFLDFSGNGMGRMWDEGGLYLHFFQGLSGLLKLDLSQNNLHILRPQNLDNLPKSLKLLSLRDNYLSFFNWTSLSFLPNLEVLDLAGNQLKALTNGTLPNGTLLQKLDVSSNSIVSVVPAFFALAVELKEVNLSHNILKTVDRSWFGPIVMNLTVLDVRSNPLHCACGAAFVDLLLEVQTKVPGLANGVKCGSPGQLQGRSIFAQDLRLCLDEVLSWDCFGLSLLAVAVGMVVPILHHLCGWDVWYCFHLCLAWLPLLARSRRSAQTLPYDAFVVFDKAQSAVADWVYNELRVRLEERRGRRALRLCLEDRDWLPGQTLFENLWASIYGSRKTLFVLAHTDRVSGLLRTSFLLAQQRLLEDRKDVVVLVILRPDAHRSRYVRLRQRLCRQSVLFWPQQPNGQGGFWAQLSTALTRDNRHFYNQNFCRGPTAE
# From the text: Image analysis: A MATLAB based program called Findosome was used to calculate the (G/R) values of individual endosomes from the acquired images. Maximum Z-projected images created using Fiji (NIH) were fed to Findosome to pick endosomal compartments as ROI corresponding to individual endosomes based on the A647 channel intensity. For each ROI, the program calculates fluorescence intensities both in the normalizing channel (A647, R) as well as in the DAR (G) channel. The results were exported as an excel file. From the results, (G/R) value for individual endosomes can be calculated. Phagosomal (G/R) values from the zebrafish microglia are calculated using Fiji software. Images were imported to Fiji and maximum Z-projected images were created. ROI were manually drawn around clearly identifiable phagosomes using the normalizing channel A647 intensity. Fluorescence intensities in A647 and DAR channels were calculated. G/R values are either represented as heat map images using Fiji or as bar graph using Origin software. Intracellular measurements of (G/R) values was performed in GFP colocalized microglia. For (G/R) ratio quantification experiments, only those vesicles that are present in both green (G) and red (R) channels were considered. […]
# [5] = test system: TNF-α; assay: TNF-α quantification by ELISA in J774A.1 cells; format: cell-based; details: 500 nM, 2 h
# Method: TNF-α Quantification: To quantify the immunogenicity NOckout probes and the corresponding immunogen alone, ELISA for TNF-α was performed in J774A.1 cells. Briefly, J774A.1 cells cultured in DMEM were incubated with 500 nM NOckout sensors, CpG nucleotides, RNA, or LPS at 37° C. for 2 h. Postincubation 100 μL of extracellular medium from the culture was used to perform TNF-α quantification using ELISA kit (Cayman, catalog number 500850) according to manufacturers instructions. The calibration curve for TNF-α was generated using recombinant. TNF-α as per the vendor's instructions.
# We treated J774A.1 cells with each PAMP motif, for example mCpG, zCpG, RNA, or iRNA and their corresponding NOckout display vairent and quantified TNFα in the extracellular milieu by enzyme-linked immunisorbent assay (ELISA) (FIG. 47). […] This is because, beyond 2 h in cell culture, the probe is degraded in lysosomes, likely by DNase II, NOckout probes therefore can reliably report on endosomal NO levels only up to 2 h postinternalization (FIG. 45).
# [6] = test system: NOS3; assay: Sub-cellular nitric oxide quantification (rate of NO production, in-cell calibration); format: cell-based; details: T-47D cells, 1 μM thapsigargin
# Method: as §1
# After characterizing NO releasing profile of DEA NONOate, cellular NO production was compared to NO released from DEA-NONOate. […] As expected G/B intensity increases over time and the rate of increase is proportional to DEA-NONOate concentration. Then 1 μM thapsigargin was added to get the initial rate of NO production at the plasma membrane.
# Note this only applies to the initial phase of DAR activation where [DAR] can be considered as constant. From the predicted [NO] from DEA-NONOate, the tested concentration of NONOate, the first 30 s [NO] increases with t. […]
# Using the calibration curve, the initial G/B rates from thapsigargin treated cells is plugged in and the plasma membrane NO production was measured to be 576±61 nM/s (FIG. 3e).
# Next, in order to measure the relative activities of NOS3 at the plasma membrane and the TGN, a method was developed to quantify sub-cellular NO generated due to NOS3 activity. […] As the effective concentration of NO at any time, [NO]eff, changes with time, NOS3 activity is best quantified by the rate of NO production. […]
# An in-cell calibration protocol was developed to measure the rate of NO production for various concentrations of DEA-NONOate using NOckout probes. […] NOckout^PM labeled cells was then treated with 1 μM thapsigargin and measured the rate of NO production given by the increasing G/B ratio. […]
compound,measurement,setting,value
c1ccc(Cn2nnc3c(Sc4nc5ccccc5o4)ncnc32)cc1 [VAS2870],NO signal of NOckout with inhibitor,[1],did not reduce NO signal
"CCN(CC)/[N+]([O-])=N/O.CCNCC [DEA NONOate, Diethylamine NONOate]","k1, decomposition rate constant",[2]; calculated from UV absorption at 250 nm,0.00131 s⁻¹
same,half-life,[2]; pH 7.4 at 25° C.,about 9 min
same,half-life,[3],2 min
"NOckout^mGpC: control of NOckout^mCpG with non-immunostimulatory GpC motifs (TGCTGTCTGGTGTGCAGTGTTGATTTTCCATGAGCTTCCTGACCTT; DNA nanodevice strand, phosphorothioate ODN overhang and dyes, pattern not given here)",reduction of NO-rich endosomes,[4],40%
same,TNF-α in the extracellular milieu,[5],dramatic reduction in TNF-α levels
C/C=C(/C)C(=O)O[C@H]1C(C)=C2[C@H]([C@@H]1OC(=O)CCCCCCC)[C@@](C)(OC(C)=O)C[C@H](OC(=O)CCC)[C@@]1(O)[C@H]2OC(=O)[C@@]1(C)O [thapsigargin],rate of NO production at the plasma membrane,[6]; NOckout^PM,576 ± 61 nM/s
same,initial rate of NO production at the TGN,[6]; NOckout^TGN,74 ± 41 nM/s
